Test results from patent US20080274892A1, “Novel Haloalkylsulfonanilide Derivative, Herbicide, and Method of Use Thereof” (priority 2005, published 2008).

Tests used:
bulrush [1] = assay: Test Example 1: herbicidal efficacy on rice paddy weeds pre-emergence; assay type: in vivo, Scirpus juncoides; conditions: dosage 1000 g/ha, 21 days
false pimpernel [2] = assay: as above; assay type: in vivo, Lindernia pyxidaria; conditions: dosage 1000 g/ha, 21 days
barnyard glass = assay: Test Example 2: herbicidal efficacy on rice paddy weeds post-emergence; assay type: in vivo, Echinochloa crus-galli; conditions: dosage 1000 g/ha; post-emergence, one leaf stage; 21 days after treatment
In short: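 Efficacy on paddy weeds was scored on a 0 to 4 growth-inhibition scale: 4 for 90%-100%, 3 for 70%-89%, 2 for 40%-69%, 1 for 1%-39% and 0 for 0%. Barnyard glass was grown in clay loam in 75 cm^2 pots under 5 cm of water in a hot house. It was compared with untreated pots 21 days after treatment.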

bulrush [3] = assay: as above; assay type: in vivo, Scirpus juncoides; conditions: dosage 1000 g/ha; post-emergence, one leaf stage; 21 days after treatment
false pimpernel [4] = assay: as above; assay type: in vivo, Lindernia pyxidaria; conditions: dosage 1000 g/ha; post-emergence, one leaf stage; 21 days after treatment
[5] = test system: paddy rice plant (cultivar: Nihonbare); assay: Test Example 3: phytotoxicity test for transplanted paddy rice plant; assay type: in vivo; conditions: dosage 1000 g/ha; transplanted rice, treated 5 days after transplantation; 21 days after treatment
In short: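 Clay loam soil was placed in a 75 cm^2 plastic pot and flooded to a water depth of 5 cm. Two Nihonbare paddy rice plants at the two-leaf stage were transplanted 1 cm deep and grown in a hot house. After treatment, pots stayed in the hot house for 21 days, and phytotoxicity was then graded against an untreated control.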

bulrush [6] = assay: Test Example 4: low dosage test for rice paddy weeds; assay type: in vivo, Scirpus juncoides; conditions: 300 g/ha as an active ingredient; plants treated at the one leaf stage; 21 days after treatment; vs untreated control
In short: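 Compound applied as a formulation at 300 g/ha to one-leaf bulrush grown in flooded clay loam (5 cm water) in a hot house. After 21 days, growth inhibition versus untreated plants rated on a 0–4 scale, with 4 meaning 90–100%.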

[7] = test system: transplanted paddy rice plant and Bulrush; assay: Test Example 5: selectivity between transplanted paddy rice plant and weeds; assay type: in vivo; conditions: (highest dosage with no phytotoxicity to paddy rice)/(lowest dosage with effective level 4 on Bulrush); rice 3000-100 g/ha, Bulrush 300-10 g/ha; 21 days
In short: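 Scoring ran 21 days after treatment in a hothouse on a 0–4 scale (4 = 90–100%, 3 = 70–89%, 2 = 40–69%, 1 = 1–39%, 0 = none) relative to untreated plants. Post-emergence bulrush received 10, 30, 100 and 300 g/ha active ingredient. Transplanted rice received 100, 300, 1000 and 3000 g/ha to assess crop injury.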

Compound | Bulrush pre (herbicidal efficacy grade) (bulrush [1]) | False pimpernel pre (herbicidal efficacy grade) (false pimpernel [2]) | Burnyard grass post (herbicidal efficacy grade) (barnyard glass) | Bulrush post (herbicidal efficacy grade) (bulrush [3]) | False pimpernel post (herbicidal efficacy grade) (false pimpernel [4]) | Phytotoxicity to paddy rice [5] | Herbicide effect to Bulrush (bulrush [6]) | Selective Index [7]
CC(C)COC(=O)N(c1ccccc1CN1CC(C)OC1=O)S(=O)(=O)C(F)(F)F (centres unmarked) [Compound No. 1-18] | 4 (90%-100% of herbicidal efficacy or phytotoxicity) | 4 (90%-100% of herbicidal efficacy or phytotoxicity) | 4 (90%-100% of herbicidal efficacy or phytotoxicity) | 4 (90%-100% of herbicidal efficacy or phytotoxicity) | 4 (90%-100% of herbicidal efficacy or phytotoxicity) | 0 (0% of herbicidal efficacy or phytotoxicity) | 4 (90%-100% of herbicidal efficacy or phytotoxicity) | 33
CCCC1(C)CN(Cc2ccccc2N(C(=O)OCC(C)C)S(=O)(=O)C(F)(F)F)C(=O)O1 (racemic) [1-122] | 4 (90%-100% of herbicidal efficacy or phytotoxicity) | 4 (90%-100% of herbicidal efficacy or phytotoxicity) | 4 (90%-100% of herbicidal efficacy or phytotoxicity) | 4 (90%-100% of herbicidal efficacy or phytotoxicity) | 4 (90%-100% of herbicidal efficacy or phytotoxicity) | 1 (1%-39% of herbicidal efficacy or phytotoxicity) | 4 (90%-100% of herbicidal efficacy or phytotoxicity) | 10
CCCOC(=O)N(c1ccccc1CN1CC(C)(C2CC2)OC1=O)S(=O)(=O)C(F)(F)F (racemic) [1-112] | 4 (90%-100% of herbicidal efficacy or phytotoxicity) | 4 (90%-100% of herbicidal efficacy or phytotoxicity) | 4 (90%-100% of herbicidal efficacy or phytotoxicity) | 4 (90%-100% of herbicidal efficacy or phytotoxicity) | 4 (90%-100% of herbicidal efficacy or phytotoxicity) | 2 (40%-69% of herbicidal efficacy or phytotoxicity) | 4 (90%-100% of herbicidal efficacy or phytotoxicity) | 30
CC(C)COC(=O)N(c1ccccc1CN1CC(C)(C)OC1=O)S(=O)(=O)C(F)(F)F [1-44] | 4 (90%-100% of herbicidal efficacy or phytotoxicity) | 4 (90%-100% of herbicidal efficacy or phytotoxicity) | 4 (90%-100% of herbicidal efficacy or phytotoxicity) | 4 (90%-100% of herbicidal efficacy or phytotoxicity) | 4 (90%-100% of herbicidal efficacy or phytotoxicity) | 2 (40%-69% of herbicidal efficacy or phytotoxicity) | 4 (90%-100% of herbicidal efficacy or phytotoxicity) | 30
CC1(C2(C)CN(Cc3ccccc3NS(=O)(=O)C(F)(F)F)C(=O)O2)CC1 (centres unmarked) [1-167] | 4 (90%-100% of herbicidal efficacy or phytotoxicity) | 4 (90%-100% of herbicidal efficacy or phytotoxicity) | 4 (90%-100% of herbicidal efficacy or phytotoxicity) | 4 (90%-100% of herbicidal efficacy or phytotoxicity) | 4 (90%-100% of herbicidal efficacy or phytotoxicity) | 1 (1%-39% of herbicidal efficacy or phytotoxicity) | 4 (90%-100% of herbicidal efficacy or phytotoxicity) | ≧10
COC(=O)N(c1ccccc1CN1CC(C)(c2ccccc2)OC1=O)S(=O)(=O)C(F)(F)F (centres unmarked) [1-142] | 4 (90%-100% of herbicidal efficacy or phytotoxicity) | 4 (90%-100% of herbicidal efficacy or phytotoxicity) | 4 (90%-100% of herbicidal efficacy or phytotoxicity) | 4 (90%-100% of herbicidal efficacy or phytotoxicity) | 4 (90%-100% of herbicidal efficacy or phytotoxicity) | 1 (1%-39% of herbicidal efficacy or phytotoxicity) | 4 (90%-100% of herbicidal efficacy or phytotoxicity) | ≧30
CC1COC(=O)N1Cc1ccccc1NS(=O)(=O)C(F)(F)F (centres unmarked) [1-3] | 4 (90%-100% of herbicidal efficacy or phytotoxicity) | 4 (90%-100% of herbicidal efficacy or phytotoxicity) | 4 (90%-100% of herbicidal efficacy or phytotoxicity) | 4 (90%-100% of herbicidal efficacy or phytotoxicity) | 4 (90%-100% of herbicidal efficacy or phytotoxicity) | 4 (90%-100% of herbicidal efficacy or phytotoxicity) | 4 (90%-100% of herbicidal efficacy or phytotoxicity) | 3.3
CCCC1(CC)CN(Cc2ccccc2N(C(=O)OCC(C)C)S(=O)(=O)C(F)(F)F)C(=O)O1 (centres unmarked) [1-132] | 4 (90%-100% of herbicidal efficacy or phytotoxicity) | 4 (90%-100% of herbicidal efficacy or phytotoxicity) | 4 (90%-100% of herbicidal efficacy or phytotoxicity) | 4 (90%-100% of herbicidal efficacy or phytotoxicity) | 4 (90%-100% of herbicidal efficacy or phytotoxicity) | 1 (1%-39% of herbicidal efficacy or phytotoxicity) | 4 (90%-100% of herbicidal efficacy or phytotoxicity) | 10
CC1(C)CN(Cc2ccccc2NS(=O)(=O)C(F)(F)F)C(=O)O1 [1-43] | 4 (90%-100% of herbicidal efficacy or phytotoxicity) | 4 (90%-100% of herbicidal efficacy or phytotoxicity) | 4 (90%-100% of herbicidal efficacy or phytotoxicity) | 4 (90%-100% of herbicidal efficacy or phytotoxicity) | 4 (90%-100% of herbicidal efficacy or phytotoxicity) | 2 (40%-69% of herbicidal efficacy or phytotoxicity) | 4 (90%-100% of herbicidal efficacy or phytotoxicity) | 10
CCCCOC(=O)N(c1ccccc1CN1CC(CC)(CC)OC1=O)S(=O)(=O)C(F)(F)F [1-99] | 4 (90%-100% of herbicidal efficacy or phytotoxicity) | 4 (90%-100% of herbicidal efficacy or phytotoxicity) | 4 (90%-100% of herbicidal efficacy or phytotoxicity) | 4 (90%-100% of herbicidal efficacy or phytotoxicity) | 4 (90%-100% of herbicidal efficacy or phytotoxicity) | 1 (1%-39% of herbicidal efficacy or phytotoxicity) | 4 (90%-100% of herbicidal efficacy or phytotoxicity) | 10
